≈ marks a conversion by molar mass, not a printed value.
How the values were obtained:
[1] = hydrolysis of esters in phosphate buffer; format: in vitro ADME; details: pH 7.4, 10 μg/ml, 30 min, 37°C, corrected for blank, read-out: % hydrolyzed after 30 min at 37°C, phosphate buffer
Description: (§1) The hydrolysis of the esters of the aminopenicillins prepared according to the invention were determined in buffer solution with and without human serum being present. The esters were incubated for 30 min at 37°C at a concentration of 10 μg/ml in Sorensen's phosphate buffer (pH 7.4) and in another experiment in the same buffer containing 10 % human serum. The test solutions were extracted with ethyl acetate to remove unhydrolyzed ester and were analyzed microbiologically for their contents of aminopenicillin. Blank values were obtained by dissolving the esters in phosphate buffer at the same concentration and immediately perform the extraction. The values in the table are corrected for the blank values.

[2] = hydrolysis of esters in phosphate buffer + 10% human serum; format: in vitro ADME; details: buffer with 10% serum; pH 7.4, 10% human serum, 10 μg/ml, 30 min, 37°C, corrected for blank; read-out: % hydrolyzed after 30 min at 37°C, phosphate buffer + 10% human serum
Description: as §1

[3] = background statement on α-aminobenzylpenicillin; cited from earlier work
E.coli [4] = assay: antibacterial activity, tube dilution procedure in broth, E. coli; format: cell-based; details: Escherichia coli
Source text: (§2) (termination of concentration according to the hydroxamate method; antibacterial activity determined by tube dilution procedure in broth).

P.mirabilis = assay: antibacterial activity, tube dilution procedure in broth, P. mirabilis; format: cell-based; details: Proteus mirabilis
Source text: as §2

Staph.aur. Oxford = assay: antibacterial activity, tube dilution procedure in broth, Staph. aureus Oxford; format: cell-based; details: Staphylococcus aureus
Source text: as §2

Staph. aureus Oxford [5] = assay: growth inhibition of Staph. aureus Oxford (Examples); format: cell-based; details: for MIC: Staphylococcus aureus, read-out: inhibited the growth of Staph. aureus Oxford at a concentration of
P. mirabilis = assay: growth inhibition of P. mirabilis (Example 7a); format: cell-based; details: Proteus mirabilis; read-out: inhibited the growth of P. mirabilis at
E. coli = assay: growth inhibition of E. coli (Example 7a); format: cell-based; details: Escherichia coli; read-out: inhibited the growth of E. coli at
[6] = human, in vivo, po, 480 min
Description: The oral absorption of 1'-ethoxycarbonyloxyethyl 6-(D-α-aminophenylacetamino)penicillanate (I) and of 1'-acetoxyethyl6-(D-α-aminophenylacetamido)penicillanate (II) was studied in a cross-over experiment in 9 healthy male volunteers using 6-(D-α-aminophenylacetamido)penicillanic acid (ampicillin) as a reference. The compounds were administered in tablets with the following composition:
The amounts of the esters correspond to 250 mg of free ampicillin. The reference compound was given in a commercially available tablet (Doktacillin 0.25 g) containing 250 mg of free ampicillin. The tablets were taken on an empty stomach. Blood samples were drawn at preset intervals and analyzed for their contents of ampicillin using a microbiological essay. The following mean serum levels (in μg/ml) with standard error of the mean were found:
The mean cumulative urinary excretions after 8 hours in percentage of the dose given were: […]

E.coli [7] = assay: growth inhibition of E. coli, solution test on agar; format: cell-based; details: Escherichia coli, read-out: inhibited the growth of E.coli at
Description: (§3) The product inhibited the growth of Staph. Aureus Oxford at a concentration of 0.13 μg/ml and of E.coliat 125 μg/ml (solution test on agar) and contained in its IR-spectrum a strong absorption band at 1750 cm^-^1 showing presence of a β-lactame and an ester function.

Staph. aureus Oxford [8] = assay: growth inhibition of Staph. aureus Oxford, solution test on agar; format: cell-based; details: Staphylococcus aureus, read-out: inhibited the growth of Staph. Aureus Oxford at a concentration of
Description: as §3

Compound | degraded at 0.5 h [1] [%] | metabolised at 0.5 h [2] [%] | MIC (Staph. aureus Oxford [5]) [µg/mL] | also measured
CCCCC(=O)OC(C)OC(=O)[C@@H]1N2C(=O)[C@@H](NC(=O)[C@H](N)c3ccccc3)[C@H]2SC1(C)C (stereo partly drawn) [10 --CH--OCOC4 H9, 1'-valeryloxy-ethyl 6-(D-α-aminophenylacetamido)penicillanate] | 4.9 | 14.3 |  | 
CC(OC(=O)C(C)C)OC(=O)[C@@H]1N2C(=O)[C@@H](NC(=O)[C@H](N)c3ccccc3)[C@H]2SC1(C)C (stereo partly drawn) [10 --CH--OCOCH(CH3)2, 1'-isobutyroxy-ethyl 6-(D-α-aminophenylacetamido)penicillanate] | 5.2 | 12.1 |  | 
CC1(C)S[C@@H]2[C@H](NC(=O)[C@H](N)c3ccccc3)C(=O)N2[C@H]1C(=O)O [Ampicillin, 6-(D-α-aminophenylacetamido)penicillanic acid] |  |  |  | oral absorption [3]: orally absorbed relatively incompletely
CCOC(=O)NCOC(=O)[C@@H]1N2C(=O)[C@@H](NC(=O)[C@H](N)c3ccccc3)[C@H]2SC1(C)C [Ethylcarbamatomethylester, ethoxycarbonylaminomethyl 6-(D-α-aminophenylacetamido)penicillanate] | 7.1 | 15.2 |  | MIC (E.coli [4]): 12.5 µg/mL (≈ 27.7 µM); MIC (P.mirabilis): 6.25 µg/mL (≈ 13.9 µM); MIC (Staph.aur. Oxford): 0.16 µg/mL (≈ 0.355 µM)
CC(=O)OC(C)OC(=O)[C@@H]1N2C(=O)[C@@H](NC(=O)C(N)CCC(C)C)[C@H]2SC1(C)C (stereo partly drawn) [Example 5, 1'-Acetoxyethyl α-amino-δ-methylpentylpenicillinate] | 6 | 15.3 | 0.63 (≈ 1.47 µM) | 
CC(=O)OC(C)OC(=O)[C@@H]1N2C(=O)[C@@H](NC(=O)[C@H](N)c3ccccc3)[C@H]2SC1(C)C (stereo partly drawn) [Example 7, 1'-Acetoxyethyl 6-(D-α-aminophenylacetamido)penicillanate] | 7 | 17 | 0.32 (≈ 0.735 µM) | inhibited the growth of Staph. aureus Oxford at a concentration of (Staph. aureus Oxford [5]; listed as Example 7b): 0.25 µg/mL; MIC (P. mirabilis): 50 µg/mL (≈ 115 µM); MIC (E. coli): 50 µg/mL (≈ 115 µM); mean cumulative urinary excretion after 8 hours in percentage of the dose given [6]: 53.7 ± 4.9%
CCC(=O)OC(C)OC(=O)[C@@H]1N2C(=O)[C@@H](NC(=O)[C@H](N)c3ccccc3)[C@H]2SC1(C)C (stereo partly drawn) [Example 9, 1'-Propionyloxyethyl 6-(D-α-aminophenylacetamido) penicillanate] | 6.8 | 17.6 | 0.63 (≈ 1.4 µM) | 
COC(=O)OCOC(=O)[C@@H]1N2C(=O)[C@@H](NC(=O)[C@H](N)c3ccccc3)[C@H]2SC1(C)C [Example 12, Methoxycarbonyloxymethyl 6-(D-α-aminophenylacetamido) penicillanate] | 24.8 | 77.9 | 0.13 (≈ 0.297 µM) | MIC (E.coli [4]): 25 µg/mL (≈ 57.1 µM); MIC (P.mirabilis): 6.25 µg/mL (≈ 14.3 µM); MIC (Staph.aur. Oxford): 0.16 µg/mL (≈ 0.366 µM)
CCOC(=O)OC(C)OC(=O)[C@@H]1N2C(=O)[C@@H](NC(=O)[C@H](N)c3ccccc3)[C@H]2SC1(C)C (stereo partly drawn) [Example 15, 1'-Ethoxycarbonyloxyethyl 6-(D-α-aminophenylacetamido) penicillanate] | 3.8 | 57.1 | 0.13 (≈ 0.279 µM) | MIC (E.coli [7]): 125 µg/mL (≈ 269 µM); MIC (Staph. aureus Oxford [8]): 0.13 µg/mL (≈ 0.279 µM); mean cumulative urinary excretion after 8 hours in percentage of the dose given [6]: 53.4 ± 2.5%
CCOC(=O)OCOC(=O)[C@@H]1N2C(=O)[C@@H](NC(=O)[C@H](N)c3ccccc3)[C@H]2SC1(C)C [Example 17, Ethoxycarbonyloxymethyl 6-(D-α-aminophenylacetamido) penicillanate] | 13.3 | 64.7 | 0.05 (≈ 0.111 µM) | 
CCCOC(=O)OCOC(=O)[C@@H]1N2C(=O)[C@@H](NC(=O)[C@H](N)c3ccccc3)[C@H]2SC1(C)C [Example 18, Propoxycarbonyloxymethyl 6-(D-α-aminophenylacetamido) penicillanate] | 14.5 | 53.7 | 0.05 (≈ 0.107 µM) | 
CC(C)OC(=O)OCOC(=O)[C@@H]1N2C(=O)[C@@H](NC(=O)[C@H](N)c3ccccc3)[C@H]2SC1(C)C [Example 19, Isopropoxycarbonyloxymethyl 6-(D-α-aminophenylacetamido)penicillanate] | 15.2 | 68.4 | 0.05 (≈ 0.107 µM) | 
CCCCOC(=O)OCOC(=O)[C@@H]1N2C(=O)[C@@H](NC(=O)[C@H](N)c3ccccc3)[C@H]2SC1(C)C [Example 20, Butoxycarbonyloxymethyl 6-(D-α-aminophenylacetamido) penicillanate] | 13 | 41.1 | 0.05 (≈ 0.104 µM) | 
CC(=O)OC(C)OC(=O)[C@@H]1N2C(=O)[C@@H](NC(=O)[C@H](N)c3cccc(F)c3)[C@H]2SC1(C)C (stereo partly drawn) [Example 22, 1'-acetoxy-ethyl 6-(D-α-amino-m-fluorophenylacetamido) penicillanate] | 3.1 | 16.4 | 0.25 (≈ 0.551 µM) | 
CCOC(=O)OC(C)OC(=O)[C@@H]1N2C(=O)[C@@H](NC(=O)[C@H](N)c3cccc(F)c3)[C@H]2SC1(C)C (stereo partly drawn) [Example 23, 1'-Ethyloxycarbonyloxyethyl 6-(D-α-amino-m-fluorophenylacetamido)penicillanate] | 2.6 | 37.7 |  | 
CC(=O)OC(C)OC(=O)[C@@H]1N2C(=O)[C@@H](NC(=O)[C@H](N)c3ccc(F)cc3)[C@H]2SC1(C)C (stereo partly drawn) [Example 24, 1'-Acetoxyethyl 6-(D-α-amino-p-fluorophenylacetamido)penicillanate] | 9 | 14.3 | 0.25 (≈ 0.551 µM) | 
CCOC(=O)OC(C)OC(=O)[C@@H]1N2C(=O)[C@@H](NC(=O)[C@H](N)c3ccc(F)cc3)[C@H]2SC1(C)C (stereo partly drawn) [Example 25, 1'-Ethyloxycarbonyloxyethyl 6-(D-α-amino-p-fluorophenylacetamido)penicillanate] | 1.4 | 20.2 | 0.25 (≈ 0.517 µM) | 
CC(=O)OC(C)OC(=O)[C@@H]1N2C(=O)[C@@H](NC(=O)C(N)c3ccc(Cl)cc3)[C@H]2SC1(C)C (stereo partly drawn) [Example 26, 1'-Acetoxyetyl 6-(α-amino-p-chlorophenylacetamido)penicillanate] | 10.8 | 15.6 | 0.63 (≈ 1.34 µM) | 
CC(=O)OC(C)OC(=O)[C@@H]1N2C(=O)[C@@H](NC(=O)[C@H](N)c3ccc(O)cc3)[C@H]2SC1(C)C (stereo partly drawn) [Example 27, 1'-Acetoxyethyl 6-(D-α-amino-p-hydroxyphenylacetamido)penicillanate] | 2.5 | 6.8 | 0.25 (≈ 0.554 µM) | 
CCOC(=O)OC(C)OC(=O)[C@@H]1N2C(=O)[C@@H](NC(=O)[C@H](N)c3ccc(O)cc3)[C@H]2SC1(C)C (stereo partly drawn) [Example 28, 1'-Ethoxycarbonyloxyethyl 6-(D-α-amino-p-hydroxyphenylacetamido)penicillanate] | 5 | 33.1 | 0.25 (≈ 0.519 µM) | 
CC(=O)OC(C)OC(=O)[C@@H]1N2C(=O)[C@@H](NC(=O)C(N)c3ccoc3)[C@H]2SC1(C)C (stereo partly drawn) [Example 29, 1'-Acetoxyethyl 6-(α-amino-3-furylacetamido)penicillanate] | 3.5 | 12.4 | 0.63 (≈ 1.48 µM) | 

— patent US3939270A, “Pharmaceutical preparations containing α-aminopenicillins” (priority 1970, dated 1976)
